Data taken from patent US20110111040A1, “POLYELECTROLYTE-ENCAPSULATED GOLD NANOPARTICLES CAPABLE OF CROSSING BLOOD-BRAIN BARRIER” (priority 2008, published 2011).

Columns and labels:
[1] = Electrophoretic mobility (ue) measurements as a function of pH; assay type: physicochemical
Procedure: Electrophoretic mobility (ue) measurements were performed in a Malvern Zetasizer 2000 apparatus (Malvern Instruments, England) at room temperature. Measurements were carried out 24 hours after the preparation of the suspensions, and the pH was readjusted immediately before the mobility was measured. In FIG. 1. electrophoretic mobility as a function of the pH of the gold nanoparticles, creatine, gold-creatine composite particles, and albumin are shown. As observed, the gold nanoparticles present a negative electrophoretic mobility (ue) over the whole range of pH, characteristic of the citrate molecules adsorbed on them, becoming more negative with pH increase. […] On the contrary, albumin molecules present an isoelectric point between pH 4.5-5, becoming more negative with pH increase.

[2] = albumin alone; stated without own test; cited from earlier work

electrophoretic mobility (ue) ([1]; acidic conditions) | electrophoretic mobility (ue) ([1]; whole range of pH) | Molecule | isoelectric point [1] | crossing of the blood brain barrier [2]
very close to zero | negative | CN(CC(=O)O)C(=N)N [Creatine] |  | 
 |  | albumin | 4.5-5 pH | not able to cross the blood brain barrier
